The values that follow come from patent US9365583B2, “Substituted pyrazoles and uses thereof” (Genentech, Inc., priority 2013, dated 2016).

The assay deals with T1, N-terminally GST-tagged DLK (catalytic domain amino acid 1-520) (Homo sapiens, UniProt Q12852).
T1 construct: N-terminally GST-tagged DLK (catalytic domain amino acid 1-520); purchased Carna Bioscience
T1 sequence (Q12852 1-520): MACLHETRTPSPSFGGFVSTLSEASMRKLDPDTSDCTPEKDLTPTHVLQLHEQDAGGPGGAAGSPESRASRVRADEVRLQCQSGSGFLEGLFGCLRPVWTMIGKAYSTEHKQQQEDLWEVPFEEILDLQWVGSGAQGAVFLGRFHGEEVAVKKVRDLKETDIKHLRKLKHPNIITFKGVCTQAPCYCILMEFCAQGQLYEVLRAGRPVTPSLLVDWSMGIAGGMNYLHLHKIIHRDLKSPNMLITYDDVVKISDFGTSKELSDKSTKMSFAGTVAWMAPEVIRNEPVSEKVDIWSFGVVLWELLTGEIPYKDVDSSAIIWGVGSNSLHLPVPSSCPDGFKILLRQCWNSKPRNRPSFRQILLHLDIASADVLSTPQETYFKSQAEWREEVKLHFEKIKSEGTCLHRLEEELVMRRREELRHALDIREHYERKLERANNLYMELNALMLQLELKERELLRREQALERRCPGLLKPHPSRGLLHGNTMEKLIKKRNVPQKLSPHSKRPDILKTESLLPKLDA
The experiment in a line: DLK TR-FRET inhibition assay. Particulars: 5 nM GST-DLK, 40 nM HIS-MKK4 K131M substrate, 30 μM ATP, 60 minutes at ambient temperature. The class given is biochemical. Put shortly:
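5 nM GST-DLK (aa 1-520), 40 nM HIS-MKK4 K131M and 30 μM ATP reacted 60 min at ambient temperature in HEPES pH 7.5 buffer with 10 mM MgCl2, compound 1:3 serially diluted from 20 uM. TR-FRET detection of phospho-MKK4 used Eu-cryptate anti-phospho-MKK4 plus D2 anti-HIS, read after 3 h (665/615 nm).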
Consider `CC(C)n1nc(-c2cnc(N)c(C(F)(F)F)c2)cc1[C@H]1[C@@H]2C[C@H](N(C)C)C[C@@H]21` [compound 188, 5-(5-((lR,3r,5S,6r)-3-(dimethylamino)bicyclo[3.1,0]hexan-6-yl)-1-isopropyl-1 H-pyrazol-3-yl)-3-(trifluoromethyl)pyridin-2-am inc], for which the affinity corresponds to a Ki of 2.8 nM.
On to `CC(C)n1nc(-c2cnc(N)c(C(F)(F)F)c2)cc1[C@H]1[C@@H]2C[C@H](N(C)C3COC3)C[C@@H]21` [compound 49, 5-(1-isopropyl-5-((1R,3r,5S,6r)-3-(methyl(oxetan-3-yl)amino)bicyclo[3.1.0]hexan-6-yl)-1H-pyrazol-3-yl)-3-(trifluoromethyl) pyridin-2-amine], for which affinity was put at a Ki of 4.2 nM. This Ki lies about 1.5-fold higher than the previous one.
The molecule `CC(C)n1nc(-c2cnc(N)c(C(F)(F)F)c2)cc1[C@H]1[C@@H]2C[C@H](N3CCOC[C@H]3C)C[C@@H]21` [compound 46, 5-(1-isopropyl-5-((1R,3s,5S,6R)-3-((R)-3-methylmorpholino)bicyclo[3.1.0]hexan-6-yl)-1H-pyrazol-3-yl)-3-(trifluoromethyl) pyridin-2-amine] gave an inhibition constant Ki of 1.85 nM. This Ki lies about 2.3-fold lower than the previous one.
`CC(C)n1nc(-c2cnc(N)c(C(F)(F)F)c2)cc1[C@H]1[C@@H]2C[C@@H](N3CCN(C)C[C@@H]3C)C[C@@H]21` [compound 239, 5-(5-((1R,3s,5S,6S)-3-((S)-2,4-dimethylpiperazin-1-yl)bicyclo [3.1.0]hexan-6-yl)-1-isopropyl-1H-pyrazol-3-yl)-3-(trifluoromethyl) pyridin-2-amine] displayed an inhibition constant (Ki) of 1.7 nM.
In the case of `CC(C)n1nc(-c2cnc(N)c(OC(F)(F)F)c2)cc1[C@H]1[C@@H]2C[C@H](N3CC4(CN(C)CCO4)C3)C[C@@H]21` [compound 220, 5-(1-isopropyl-5-((1R,3r,5S,6r)-3-(8-methyl-5-oxa-2,8-diazaspiro [3.5]nonan-2-yl)bicyclo[3.1.0]hexan-6-yl)-1H-pyrazol-3-yl)-3-(trifluoromethoxy)pyridin-2-amine] it was 2.1 nM; in that of `CC(C)n1nc(-c2cnc(N)c(OC(F)F)c2)cc1[C@H]1[C@@H]2C[C@H](OC3COC3)C[C@@H]21` [compound 230, 3-(difluoromethoxy)-5-(1-iso-oprpyl-5-((1R,3r,5S,6r)-3-(oxetan-3-yloxy)bicyclo[3.1.0]hexan-6-yl)-1H-pyrazol-3-yl)pyridin-2-amine], 3.4 nM; in that of `CC(C)n1nc(-c2cnc(N)c(C(F)(F)F)c2)cc1[C@H]1[C@@H]2C[C@H](NCC(F)F)C[C@@H]21` [compound 253, 5-(5-((1R,3r,5S,6r)-3-((2,2-difluoroethyl)amino)bicyclo[3.1.0]hexan-6-yl)-1-isopropyl-1H-pyrazol-3-yl)-3-(trifluoromethyl) pyridin-2-amine], 3.4 nM.
The value for `CC(C)n1nc(-c2cnc3cnn([C@H](C)c4ccccn4)c3c2)cc1[C@H]1[C@@H]2C[C@H](N3CCOCC3)C[C@@H]21` [compound 33, 4-((1R3R,5S,6r)-6-(1-isopropyl-3-(1-((R)-1-(pyridin-2-yl)ethyl)-1H-pyrazolo[4,3-b]pyridin-6-yl)-1H-pyrazol-5-yl)bicyclo[3.10]hexan-3-yl)morpholine] was 123 nM; that for `CC(C)n1nc(-c2cnc(N)c(OC(F)(F)F)c2)cc1[C@H]1[C@@H]2C[C@@H](N3C[C@@H]4C[C@H]3CN4C)C[C@@H]21` [compound 209, 5-(1-isopropyl-5-((1R,3s,5S,6S)-3-((1S,4S)-5-methyl-2,5-diazabicyclo [2.2.1]heptan-2-yl)bicyclo [3.1.0]hexan-6-yl)-1H-pyrazol-3-yl)-3-(trifluoromethoxy) pyridin-2-amine] was 2.6 nM.
As for `CO[C@H]1CCCN([C@H]2C[C@@H]3[C@H](C2)[C@H]3c2cc(-c3cnc(N)c(C(F)(F)F)c3)nn2C(C)C)C1` [compound 286, 5-(1-isopropyl-5-((1R,3r,5S,6S)-3-((S)-3-methoxypiperidin-1-yl)bicyclo[3.1.0]hexan-6-yl)-1H-pyrazol-3-yl)-3-(trifluoromethyl) pyridin-2-amine], the inhibition constant Ki stood at 3.4 nM.
The molecule `COC1CCN([C@@H]2C[C@@H]3[C@H](C2)[C@H]3c2cc(-c3cnc(N)c(OC(F)(F)F)c3)nn2C(C)C)CC1` [compound 246, 5-(1-isopropyl-5-((1R,3s,5S,6r)-3-(4-methoxypiperidin-1-yl)bicyclo[3.1.0]hexan-6-yl)-1H-pyrazol-3-yl)-3-(trifluoromethoxy) pyridin-2-amine] returned an inhibition constant (Ki) of 1.8 nM.
In turn, `CC(C)n1nc(-c2cnc(N)c(C(F)(F)F)c2)cc1[C@H]1[C@@H]2C[C@@H](N3C[C@@H]4C[C@H]3CN4C)C[C@@H]21` [compound 207, 5-(1-isopropyl-5-((1R,3s,5S,6S)-3-((1S,4S)-5-methyl-2,5-diazabicyclo [2.2.1]heptan-2-yl)bicyclo [3.1.0]hexan-6-yl)-1H-pyrazol-3-yl)-3-(trifluoromethyl) pyridin-2-amine] displayed an inhibitory constant (Ki) of 3.6 nM.
`CC(C)n1nc(-c2cnc(N)c(C(F)(F)F)c2)cc1[C@H]1[C@@H]2C[C@H](N3CCCN(C)CC3)C[C@@H]21` [compound 211, 5-(1-isopropyl-5-((1R,3r,5S,6r)-3-(4-methyl-1,4-diazepan-1-yl)bicyclo[3.1.0]hexan-6-yl)-1H-pyrazol-3-yl)-3-(trifluoromethyl) pyridin-2-amine] displayed a Ki of 3.2 nM.
On to `CC(C)n1nc(-c2cnc(N)c(OC(F)(F)F)c2)cc1[C@H]1[C@@H]2C[C@H](N3CCCN(C)CC3)C[C@@H]21` [compound 204, 5-(1-isopropyl-5-((1R,3r,5S,6r)-3-(4-methyl-1,4-diazepan-1-yl)bicyclo[3.1.0]hexan-6-yl)-1H-pyrazol-3-yl)-3-(trifluoromethoxy) pyridin-2-amine], for which affinity was put at a Ki of 1.2 nM.
The value for `Nc1ncc(-c2cc([C@H]3[C@@H]4C[C@@H](N5CCCOCC5)C[C@@H]43)n(CC(F)F)n2)cc1OC(F)(F)F` [compound 243, 5-(5-((1R,3s,5S,6r)-3-(1,4-oxazepan-4-yl)bicyclo[3.1.0]hexan-6-yl)-1-(2,2-difluoroethyl)-1H-pyrazol-3-yl)-3-(trifluoromethoxy) pyridin-2-amine] was 1.1 nM; that for `CC(C)n1nc(-c2cnc(N)c(OC(F)F)c2)cc1[C@H]1[C@@H]2C[C@@H](N3CC[C@H](F)C3)C[C@@H]21` [compound 289, 3-(difluoromethoxy)-5-(5-((1R,3s,5S,6S)-3-((S)-3-fluoropyrrolidin-1-yl)bicyclo[3.1.0]hexan-6-yl)-1-isopropyl-1H-pyrazol-3-yl) pyridin-2-amine] was 4.4 nM; that for `CC(C)n1nc(-c2cnc(N)c(OC(F)F)c2)cc1[C@H]1[C@@H]2C[C@@H](NCC(F)F)C[C@@H]21` [compound 255, 5-(5-((1R,3s,5S,6r)-3-((2,2-difluoroethyl)amino)bicyclo[3.1.0]hexan-6-yl)-1-isopropyl-1H-pyrazol-3-yl)-3-(difluoromethoxy) pyridin-2-amine] was 1.5 nM.
With `CC(C)n1nc(-c2cnc(N)c(OC(F)(F)F)c2)cc1[C@H]1[C@@H]2C[C@H](N3CC4(COC4)C3)C[C@@H]21` [compound 57, 5-(5-((1R,3r,5S,6r)-3-(2-oxa-6-azaspiro[3.3]heptan-6-yl)bicyclo [3.1.0]hexan-6-yl)-1-isopropyl-1H-pyrazol-3-yl)-3-(trifluoro-methoxy)pyridin-2-amine], the Ki stood at 1.88 nM.
